In PMC12586182 (Frontiers in Oncology, 2025):

Assays:
Assay in all cases: Cell viability assay (ATPlite)
Type in all cases: cell-based
[1] = tested on: BT-549; conditions: Homo sapiens; BT-549 cell line, 72 hours incubation
Experimental: (§1) Intracellular ATP content was used as an indirect readout of cell number using the ATPlite 1Step bioluminescence assay (Revvity, Groningen, the Netherlands). Cells were seeded in 384-well plates at an optimized density to ensure unrestricted growth and maximal signal at the end of the experiment. After 24 hours of incubation, the starting cell number was determined by adding ATPlite to each well of a control plate and recording luminescence on an Envision multimode reader (Revvity, Waltham, MA, USA) ([4]). Compounds were diluted in DMSO in √10-fold steps from 10 mmol/L stocks to obtain 9-point dilution series. After further 31.6-fold dilution in 20 mmol/L HEPES (pH 7.4), the dilution series were added in duplicate to the cells in the 384-well plates to determine the effect of the compounds on cell viability. Vehicle-treated controls were included to determine maximal cell proliferation. The final DMSO concentration was 0.4% (v/v) in all wells. After incubation for an additional 72 hours, the ATP content was measured in each well using ATPlite. The luminescent signal in inhibitor-treated wells was normalized to vehicle-treated control wells to determine the percentage viability at each concentration. Cell doublings were determined by relating the cell number of vehicle-treated controls to the starting cell number for each cell line. The viability assay of a cell line was repeated when the cell doubling deviated > 2-fold from the historic doubling as determined by multiple independent experiments. The quality of the complete assay was determined by a parallel test with doxorubicin on two cell lines. IC50 values were calculated by fitting a four-parameter logistic model to the percentage viability values using IDBS XLfit5 (IDBS, Guildford, United Kingdom). All curves were visually inspected and submitted to an F-test as implemented in IDBS XLfit5. Curves with an F-value above 1.5 were invalidated and IC50 values were maximized at the highest concentration.

[2] = tested on: TCCSUP; conditions: Homo sapiens, TCC-SUP; TCCSUP cell line, 72 hours incubation
Experimental: as §1

[3] = tested on: T98G; conditions: Homo sapiens; T98G cell line, 72 hours incubation
Experimental: as §1

[4] = tested on: A-204; conditions: Homo sapiens, A204; A-204 cell line, 72 hours incubation
Experimental: as §1

[5] = tested on: PFSK-1; conditions: Homo sapiens; PFSK-1 cell line, 72 hours incubation
Experimental: as §1

[6] = tested on: HT-29; conditions: Homo sapiens; HT-29 cell line, 72 hours incubation
Experimental: as §1

[7] = tested on: KLE; conditions: Homo sapiens; KLE cell line, 72 hours incubation
Experimental: as §1

[8] = tested on: AU565; conditions: Homo sapiens; AU565 cell line, 72 hours incubation
Experimental: as §1

[9] = tested on: Kasumi-1; conditions: Homo sapiens; Kasumi-1 cell line, 72 hours incubation
Experimental: as §1

[10] = tested on: Rh30; conditions: Homo sapiens; Rh30 cell line, 72 hours incubation
Experimental: as §1

[11] = tested on: DU145; conditions: Homo sapiens, DU-145; DU145 cell line, 72 hours incubation
Experimental: as §1

[12] = tested on: LoVo; conditions: Homo sapiens; LoVo cell line, 72 hours incubation
Experimental: as §1

[13] = tested on: 11-18; conditions: Homo sapiens; 11-18 cell line, 72 hours incubation
Experimental: as §1

[14] = tested on: NCI-H226; conditions: Homo sapiens; NCI-H226 cell line, 72 hours incubation
Experimental: as §1

[15] = tested on: SW872; conditions: Homo sapiens; SW872 cell line, 72 hours incubation
Experimental: as §1

[16] = tested on: AsPC-1; conditions: Homo sapiens, ASPC1; AsPC-1 cell line, 72 hours incubation
Experimental: as §1

[17] = tested on: BxPC-3; conditions: Homo sapiens; BxPC-3 cell line, 72 hours incubation
Experimental: as §1

[18] = tested on: RD-ES; conditions: Homo sapiens; RD-ES cell line, 72 hours incubation
Experimental: as §1

[19] = tested on: DoHH2; conditions: Homo sapiens, DOHH-2; DoHH2 cell line, 72 hours incubation
Experimental: as §1

[20] = tested on: CTV-1; conditions: Homo sapiens; CTV-1 cell line, 72 hours incubation
Experimental: as §1

[21] = tested on: HuTu 80; conditions: Homo sapiens, HuTu80; HuTu 80 cell line, 72 hours incubation
Experimental: as §1

[22] = tested on: TT; conditions: Homo sapiens; TT cell line, 72 hours incubation
Experimental: as §1

[23] = tested on: Hs 766T; conditions: Homo sapiens, Hs766T; Hs 766T cell line, 72 hours incubation
Experimental: as §1

[24] = tested on: PC-3; conditions: Homo sapiens; PC-3 cell line, 72 hours incubation
Experimental: as §1

[25] = tested on: SK-OV-3; conditions: Homo sapiens; SK-OV-3 cell line, 72 hours incubation
Experimental: as §1

[26] = tested on: Ku812; conditions: Homo sapiens; Ku812 cell line, 72 hours incubation
Experimental: as §1

[27] = tested on: MM1.S; conditions: Homo sapiens; MM1.S cell line, 72 hours incubation
Experimental: as §1

[28] = tested on: HT-1080; conditions: Homo sapiens; HT-1080 cell line, 72 hours incubation
Experimental: as §1

[29] = tested on: LC-2/ad; conditions: Homo sapiens; LC-2/ad cell line, 72 hours incubation
Experimental: as §1

[30] = tested on: SNU-16; conditions: Homo sapiens; SNU-16 cell line, 72 hours incubation
Experimental: as §1

[31] = tested on: RL95-2; conditions: Homo sapiens; RL95-2 cell line, 72 hours incubation
Experimental: as §1

[32] = tested on: MSTO-211H; conditions: Homo sapiens; MSTO-211H cell line, 72 hours incubation
Experimental: as §1

## O=C(c1ccc(Oc2ccccc2)cc1Cl)c1c[nH]c2ncnc(N[C@@H]3CC[C@@H](CO)OC3)c12 [nemtabrutinib]
[1]
  IC50: 8070 nM
[2]
  IC50: 7700 nM
[3]
  IC50: 4520 nM
[4]
  IC50: 6750 nM
[5]
  IC50: 11300 nM
[6]
  IC50: 369 nM
[7]
  IC50: 2110 nM
[8]
  IC50: 3260 nM
[9]
  IC50: 1410 nM
[10]
  IC50: 5520 nM
[11]
  IC50: 1640 nM
[12]
  IC50: 2360 nM
[13]
  IC50: 2620 nM
[14]
  IC50: 4620 nM
[15]
  IC50: 666 nM
[16]
  IC50: 3830 nM
[17]
  IC50: 2610 nM
[18]
  IC50: 4170 nM
[19]
  IC50: 486 nM
[20]
  IC50: 702 nM
[21]
  IC50: 1680 nM
[22]
  IC50: 5330 nM
[23]
  IC50: 1820 nM
[24]
  IC50: 26800 nM
[25]
  IC50: 4950 nM
[26]
  IC50: 1430 nM
[27]
  IC50: 5480 nM
[28]
  IC50: 4800 nM
[29]
  IC50: 1260 nM
[30]
  IC50: 1810 nM
[31]
  IC50: 1180 nM
[32]
  IC50: 3860 nM
